Assay results published in PMC9516332 (Frontiers in Oncology, 2022).
Where two headings read alike, the source gives them in different places.

Experiments:
Experiment in all cases: Kinase panel profiling at 1 µmol/L (MSA or IMAP), percentage inhibition
Assay type in all cases: biochemical
[1] = target: T1, panel of 255 wild-type kinases (Homo sapiens, UniProt Q15139); conditions: read-out: %-inhibition at 1 µmol/L, PKD1
T1 sequence (Q15139 1-912): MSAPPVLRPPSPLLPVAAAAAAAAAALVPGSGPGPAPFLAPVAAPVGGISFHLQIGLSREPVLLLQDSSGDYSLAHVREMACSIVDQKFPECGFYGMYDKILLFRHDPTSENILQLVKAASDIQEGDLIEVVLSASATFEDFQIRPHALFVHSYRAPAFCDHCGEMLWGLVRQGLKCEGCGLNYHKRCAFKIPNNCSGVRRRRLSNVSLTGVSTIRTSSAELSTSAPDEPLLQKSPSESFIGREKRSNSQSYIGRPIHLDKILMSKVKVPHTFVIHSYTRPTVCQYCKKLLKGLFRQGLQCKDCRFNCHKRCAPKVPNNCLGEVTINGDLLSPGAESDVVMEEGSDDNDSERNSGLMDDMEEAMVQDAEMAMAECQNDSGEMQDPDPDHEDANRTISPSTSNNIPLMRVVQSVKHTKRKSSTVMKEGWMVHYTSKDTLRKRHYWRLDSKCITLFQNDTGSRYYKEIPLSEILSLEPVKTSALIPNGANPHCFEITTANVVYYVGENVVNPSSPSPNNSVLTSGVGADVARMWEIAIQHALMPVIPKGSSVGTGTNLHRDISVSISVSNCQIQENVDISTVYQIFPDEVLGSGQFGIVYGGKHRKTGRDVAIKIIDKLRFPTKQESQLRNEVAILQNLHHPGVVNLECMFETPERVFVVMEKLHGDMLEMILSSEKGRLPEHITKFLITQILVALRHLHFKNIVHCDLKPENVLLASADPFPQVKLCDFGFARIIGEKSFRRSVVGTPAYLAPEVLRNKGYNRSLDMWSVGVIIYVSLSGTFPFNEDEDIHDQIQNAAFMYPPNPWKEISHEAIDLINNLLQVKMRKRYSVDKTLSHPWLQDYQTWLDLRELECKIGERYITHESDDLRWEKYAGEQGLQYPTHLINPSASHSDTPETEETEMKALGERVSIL

[2] = target: T2, panel of 255 wild-type kinases (Homo sapiens, UniProt P29322); conditions: read-out: %-inhibition at 1 µmol/L, EPHA8
T2 sequence (P29322 28-1005): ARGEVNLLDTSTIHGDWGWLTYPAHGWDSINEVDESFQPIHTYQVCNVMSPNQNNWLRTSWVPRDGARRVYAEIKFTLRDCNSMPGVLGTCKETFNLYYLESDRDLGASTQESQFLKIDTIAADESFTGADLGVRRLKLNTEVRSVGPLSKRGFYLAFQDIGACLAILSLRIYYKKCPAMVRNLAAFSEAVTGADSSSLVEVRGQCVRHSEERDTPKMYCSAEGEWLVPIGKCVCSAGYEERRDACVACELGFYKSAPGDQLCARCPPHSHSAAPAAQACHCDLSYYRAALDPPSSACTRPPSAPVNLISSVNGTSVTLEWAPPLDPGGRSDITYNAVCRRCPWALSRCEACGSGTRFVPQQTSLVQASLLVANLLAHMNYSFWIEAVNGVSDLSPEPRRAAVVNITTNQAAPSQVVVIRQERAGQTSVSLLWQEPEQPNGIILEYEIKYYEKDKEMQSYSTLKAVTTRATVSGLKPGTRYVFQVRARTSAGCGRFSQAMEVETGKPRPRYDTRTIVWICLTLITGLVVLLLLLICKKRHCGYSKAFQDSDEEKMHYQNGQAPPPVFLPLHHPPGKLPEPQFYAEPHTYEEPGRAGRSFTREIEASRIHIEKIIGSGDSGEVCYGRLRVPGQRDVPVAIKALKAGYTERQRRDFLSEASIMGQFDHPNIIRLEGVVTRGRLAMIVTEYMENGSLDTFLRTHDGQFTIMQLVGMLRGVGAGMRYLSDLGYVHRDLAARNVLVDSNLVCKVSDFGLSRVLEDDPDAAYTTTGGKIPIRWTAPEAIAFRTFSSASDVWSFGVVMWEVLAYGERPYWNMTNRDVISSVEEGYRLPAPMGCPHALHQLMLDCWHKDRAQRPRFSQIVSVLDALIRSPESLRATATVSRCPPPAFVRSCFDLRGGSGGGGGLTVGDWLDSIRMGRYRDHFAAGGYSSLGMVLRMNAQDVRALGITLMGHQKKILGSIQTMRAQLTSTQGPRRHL

[3] = target: T3, panel of 255 wild-type kinases (Homo sapiens, UniProt O15111); conditions: read-out: %-inhibition at 1 µmol/L, IKKα
T3 sequence (O15111 1-745): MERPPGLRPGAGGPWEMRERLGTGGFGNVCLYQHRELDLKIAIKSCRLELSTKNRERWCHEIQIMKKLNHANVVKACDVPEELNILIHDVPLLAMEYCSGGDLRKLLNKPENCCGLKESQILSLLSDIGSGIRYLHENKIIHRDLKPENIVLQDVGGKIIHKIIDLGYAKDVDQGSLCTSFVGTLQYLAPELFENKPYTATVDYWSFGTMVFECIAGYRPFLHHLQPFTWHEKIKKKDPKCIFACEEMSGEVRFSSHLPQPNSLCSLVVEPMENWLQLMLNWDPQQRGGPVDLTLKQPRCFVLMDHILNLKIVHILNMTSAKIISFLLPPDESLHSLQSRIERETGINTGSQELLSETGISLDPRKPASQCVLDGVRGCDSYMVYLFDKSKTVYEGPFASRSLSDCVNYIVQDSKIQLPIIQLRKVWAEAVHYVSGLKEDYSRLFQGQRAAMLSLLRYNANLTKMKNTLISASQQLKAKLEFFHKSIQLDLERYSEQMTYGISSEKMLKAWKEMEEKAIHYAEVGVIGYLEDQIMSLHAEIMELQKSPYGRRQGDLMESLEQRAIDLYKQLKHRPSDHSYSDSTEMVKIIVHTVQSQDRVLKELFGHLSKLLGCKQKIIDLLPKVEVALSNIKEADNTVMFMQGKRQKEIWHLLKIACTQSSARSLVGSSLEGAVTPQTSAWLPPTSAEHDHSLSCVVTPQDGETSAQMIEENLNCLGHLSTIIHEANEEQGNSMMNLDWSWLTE

[4] = target: panel of 255 wild-type kinases (Homo sapiens, UniProt Q9HCP0); conditions: read-out: %-inhibition at 1 µmol/L, CK1γ1
[5] = kinase PKD1, 1 µmol/L single concentration
[6] = kinase EPHA8, 1 µmol/L single concentration
[7] = kinase IKKα, 1 µmol/L single concentration
[8] = kinase CK1γ1, 1 µmol/L single concentration

Cc1nc(NC(=O)N2CCC[C@H]2C(N)=O)sc1-c1ccnc(C(C)(C)C(F)(F)F)c1 [alpelisib]
inhibition at 1 µM [1, 5]: -2% | inhibition at 1 µM [2, 6]: -6.59% | inhibition at 1 µM [3, 7]: 6% | inhibition at 1 µM [4, 8]: -1.77%

Cn1cc(-c2cc3c(N4CCN(c5ncc([C@@](C)(N)c6ccc(F)cc6)cn5)CC4)ncnn3c2)cn1 [avapritinib]
inhibition at 1 µM [1, 5]: 6.4% | inhibition at 1 µM [2, 6]: 73% | inhibition at 1 µM [3, 7]: 2.41% | inhibition at 1 µM [4, 8]: 28%

Cn1cnc2c(F)c(Nc3ccc(Br)cc3F)c(C(=O)NOCCO)cc21 [binimetinib]
inhibition at 1 µM [1, 5]: -1.69% | inhibition at 1 µM [2, 6]: 2.68% | inhibition at 1 µM [3, 7]: 9% | inhibition at 1 µM [4, 8]: 1.68%

CNC(=O)c1ccc(-c2cnc3ncc(Cc4ccc5ncccc5c4)n3n2)cc1F [capmatinib]
inhibition at 1 µM [1]: -5% | inhibition at 1 µM [2]: -14% | inhibition at 1 µM [3]: 1.1% | inhibition at 1 µM [4]: -1.88%

COc1cc2ncnc(Nc3ccc(F)c(Cl)c3)c2cc1NC(=O)/C=C/CN1CCCCC1 [dacomitinib]
inhibition at 1 µM [1, 5]: 9.49% | inhibition at 1 µM [2, 6]: 59% | inhibition at 1 µM [3, 7]: 10% | inhibition at 1 µM [4, 8]: 1.84%

C[C@H](Nc1ncnc2nc[nH]c12)c1cc2cccc(Cl)c2c(=O)n1-c1ccccc1 [duvelisib]
inhibition at 1 µM [1, 5]: -3.47% | inhibition at 1 µM [2, 6]: -7% | inhibition at 1 µM [3, 7]: 8% | inhibition at 1 µM [4, 8]: -1.46%

COC(=O)N[C@@H](C)CNc1nccc(-c2cn(C(C)C)nc2-c2cc(Cl)cc(NS(C)(=O)=O)c2F)n1 [encorafenib]
inhibition at 1 µM [1, 5]: 0.18% | inhibition at 1 µM [2, 6]: 16% | inhibition at 1 µM [3, 7]: 12% | inhibition at 1 µM [4, 8]: 26%

CN1CCN(c2ccc(C(=O)Nc3n[nH]c4ccc(Cc5cc(F)cc(F)c5)cc34)c(NC3CCOCC3)c2)CC1 [entrectinib]
inhibition at 1 µM [1, 5]: 1.46% | inhibition at 1 µM [2, 6]: 55% | inhibition at 1 µM [3, 7]: 8% | inhibition at 1 µM [4, 8]: -1.18%

CCc1nc(C(N)=O)c(Nc2ccc(N3CCC(N4CCN(C)CC4)CC3)c(OC)c2)nc1NC1CCOCC1 [gilteritinib]
inhibition at 1 µM [1, 5]: 52% | inhibition at 1 µM [2, 6]: 66% | inhibition at 1 µM [3, 7]: 2.16% | inhibition at 1 µM [4, 8]: 11%

CCN1CCN(c2ccc(Nc3cc(N(C)C(=O)Nc4c(Cl)c(OC)cc(OC)c4Cl)ncn3)cc2)CC1 [infigratinib]
inhibition at 1 µM [1, 5]: 11% | inhibition at 1 µM [2, 6]: -10% | inhibition at 1 µM [3, 7]: 2.62% | inhibition at 1 µM [4, 8]: -0.947%

O=C(Nc1cnn2ccc(N3CCC[C@@H]3c3cc(F)ccc3F)nc12)N1CC[C@H](O)C1 [larotrectinib]
inhibition at 1 µM [1, 5]: 0.148% | inhibition at 1 µM [2, 6]: -9% | inhibition at 1 µM [3, 7]: 2.45% | inhibition at 1 µM [4, 8]: -4.74%

C[C@H]1Oc2cc(cnc2N)-c2c(nn(C)c2C#N)CN(C)C(=O)c2ccc(F)cc21 [lorlatinib]
inhibition at 1 µM [1, 5]: -0.468% | inhibition at 1 µM [2, 6]: 6% | inhibition at 1 µM [3, 7]: 12% | inhibition at 1 µM [4, 8]: -2.3%

CCN1C(=O)N(c2c(F)c(OC)cc(OC)c2F)Cc2cnc3[nH]c(CN4CCOCC4)cc3c21 [pemigatinib]
inhibition at 1 µM [1, 5]: 10% | inhibition at 1 µM [2, 6]: -6% | inhibition at 1 µM [3, 7]: -6% | inhibition at 1 µM [4, 8]: -5.5%

FC(F)(F)c1ccc(CNc2ccc(Cc3c[nH]c4ncc(Cl)cc34)cn2)cn1 [pexidartinib]
inhibition at 1 µM [1, 5]: -2.56% | inhibition at 1 µM [2, 6]: 6.33% | inhibition at 1 µM [3, 7]: -0.379% | inhibition at 1 µM [4, 8]: 10%

CO[C@]1(C(=O)N[C@@H](C)c2ccc(-n3cc(F)cn3)nc2)CC[C@H](c2nc(C)cc(Nc3cc(C)[nH]n3)n2)CC1 [pralsetinib]
inhibition at 1 µM [1, 5]: 0.3% | inhibition at 1 µM [2, 6]: 84% | inhibition at 1 µM [3, 7]: -1.52% | inhibition at 1 µM [4, 8]: 1.83%

CCn1c(=O)c(-c2cc(NC(=O)Nc3ccccc3)c(F)cc2Br)cc2cnc(NC)cc21 [ripretinib]
inhibition at 1 µM [1, 5]: 15% | inhibition at 1 µM [2, 6]: 101% | inhibition at 1 µM [3, 7]: 1.08% | inhibition at 1 µM [4, 8]: -0.282%

COc1ccc(CN2C3CC2CN(c2ccc(-c4cc(OCC(C)(C)O)cn5ncc(C#N)c45)cn2)C3)cn1 [selpercatinib]
inhibition at 1 µM [1, 5]: 3.64% | inhibition at 1 µM [2, 6]: 45% | inhibition at 1 µM [3, 7]: -1.36% | inhibition at 1 µM [4, 8]: 12%

Cn1cnc2c(F)c(Nc3ccc(Br)cc3Cl)c(C(=O)NOCCO)cc21 [selumetinib]
inhibition at 1 µM [1, 5]: -0.6% | inhibition at 1 µM [2, 6]: -12% | inhibition at 1 µM [3, 7]: -0.157% | inhibition at 1 µM [4, 8]: -2.69%

Cc1cc(Nc2ncnc3ccc(NC4=NC(C)(C)CO4)cc23)ccc1Oc1ccn2ncnc2c1 [tucatinib]
inhibition at 1 µM [1, 5]: 28% | inhibition at 1 µM [2, 6]: -14% | inhibition at 1 µM [3, 7]: -1.68% | inhibition at 1 µM [4, 8]: 11%

C=CC(=O)N1CCC([C@@H]2CCNc3c(C(N)=O)c(-c4ccc(Oc5ccccc5)cc4)nn32)CC1 [zanubrutinib]
inhibition at 1 µM [1, 5]: 5% | inhibition at 1 µM [2, 6]: -8% | inhibition at 1 µM [3, 7]: -10% | inhibition at 1 µM [4, 8]: -3.73%
